Experimental data: patent US20230416329A1, “A PEPTIDE WITH DISULFIDE BONDS AND INHIBITORY ACTIVITY AGAINST SERINE PROTEASES, DERIVED HYBRID PEPTIDES THEREOF, AND USES THEREOF” (INSTITUTE OF MATERIA MEDICA , CHINESE ACADEMY OF MEDICAL …, priority 2020, published 2023)
pIC50, pKi: −log10 of the molar value. Bridge positions count the residues as written; N and C are the ends. Square brackets hold non-standard residues; d marks the D form. Peptide text beside a SMILES is read from it. Abu = CC[C@H](N)C(=O)O

Target: T1, bovine trypsin (Bos taurus, UniProt P00760)
T1 sequence (P00760 24-246): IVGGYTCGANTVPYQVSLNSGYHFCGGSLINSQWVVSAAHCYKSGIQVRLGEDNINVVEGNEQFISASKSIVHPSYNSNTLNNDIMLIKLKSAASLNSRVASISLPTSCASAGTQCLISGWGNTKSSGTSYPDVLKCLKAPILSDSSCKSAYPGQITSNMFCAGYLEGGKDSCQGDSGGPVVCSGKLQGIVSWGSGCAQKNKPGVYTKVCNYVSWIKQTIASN
Assay: Trypsin inhibitory activity of peptides (BApNA hydrolysis, OD405; IC50, Ki, residual activity)
Type: biochemical
Conditions: for pKi: Ki=IC50/(1+S/Km), Km 0.33 mM, read-out: Ki; for pIC50: trypsin 50 nM, BApNA 1.22 mM, read-out: IC50
Method in brief: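 Trypsin (50 nM final) preincubated with peptides at 37 °C in 50 mM Tris-HCl pH 7.8, 20 mM CaCl2; BApNA added (1.22 mM final), 260 min at 37 °C, then OD405 read. Residual activity from enzyme-only and substrate-only controls; IC50 fitted and converted to Ki via Ki=IC50/(1+S/Km), Km measured separately for BApNA.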

inhibitory activity against trypsin (in words)	pKi	pIC50	SMILES
excellent trypsin inhibitory activities	7.70	7.05	CC[C@@H]1NC(=O)[C@@H](N)CSSC[C@@H](C(=O)N[C@@H](Cc2ccccc2)C(=O)O)NC(=O)[C@H]([C@@H](C)CC)NC(=O)[C@@H]2CCCN2C(=O)[C@@H]2CCCN2C(=O)[C@H]([C@@H](C)CC)NC(=O)[C@H](CO)NC(=O)[C@H](CCCCN)NC(=O)[C@H]([C@@H](C)O)NC(=O)[C@H](C)NC(=O)[C@H](CCCNC(=N)N)NC1=O [BT74] (H-C[Abu]RATKSIPPICF-OH; disulfide 1-12; N-terminus and C-terminus assumed)
excellent trypsin inhibitory activities	8.07	7.40	CC[C@H](C)[C@@H]1NC(=O)[C@@H]2CCCN2C(=O)[C@@H]2CCCN2C(=O)[C@H]([C@@H](C)CC)NC(=O)[C@H](CO)NC(=O)[C@H](CCCCN)NC(=O)[C@H]([C@@H](C)O)NC(=O)[C@H](C)NC(=O)[C@H](CCCNC(=N)N)NC(=O)[C@H](CO)NC(=O)[C@@H](N)CSSC[C@@H](C(=O)N[C@@H](Cc2ccccc2)C(=O)O)NC1=O [BT75] (H-CSRATKSIPPICF-OH; disulfide 1-12; N-terminus and C-terminus assumed)
excellent trypsin inhibitory activities	8.00	7.30	CC[C@H](C)[C@@H]1NC(=O)[C@@H]2CCCN2C(=O)[C@@H]2CCCN2C(=O)[C@H]([C@@H](C)CC)NC(=O)[C@H](CO)NC(=O)[C@H](CCCCN)NC(=O)[C@H]([C@@H](C)O)NC(=O)[C@H](C)NC(=O)[C@H](CCCNC(=N)N)NC(=O)[C@H](CCCNC(=N)N)NC(=O)[C@@H](N)CSSC[C@@H](C(=O)N[C@@H](Cc2ccccc2)C(=O)O)NC1=O [BT76] (H-CRRATKSIPPICF-OH; disulfide 1-12; N-terminus and C-terminus assumed)
excellent trypsin inhibitory activities	8.07	7.40	CC[C@H](C)[C@@H]1NC(=O)[C@@H]2CCCN2C(=O)[C@@H]2CCCN2C(=O)[C@H]([C@@H](C)CC)NC(=O)[C@H](CO)NC(=O)[C@H](CCCCN)NC(=O)[C@H]([C@@H](C)O)NC(=O)[C@H](C)NC(=O)[C@H](CCCNC(=N)N)NC(=O)[C@H](CCCCN)NC(=O)[C@@H](N)CSSC[C@@H](C(=O)N[C@@H](Cc2ccccc2)C(=O)O)NC1=O [BT77] (H-CKRATKSIPPICF-OH; disulfide 1-12; N-terminus and C-terminus assumed)
excellent trypsin inhibitory activities	–	7.52	CC[C@H](C)[C@@H]1NC(=O)[C@@H]2CCCN2C(=O)[C@@H]2CCCN2C(=O)[C@H]([C@@H](C)CC)NC(=O)[C@H](CO)NC(=O)[C@H](CCCCN)NC(=O)[C@H]([C@@H](C)O)NC(=O)[C@H](C)NC(=O)[C@H](CCCNC(=N)N)NC(=O)[C@H](CCC(=O)O)NC(=O)[C@@H](N)CSSC[C@@H](C(=O)N[C@@H](Cc2ccccc2)C(=O)O)NC1=O [BT78] (H-CERATKSIPPICF-OH; disulfide 1-12; N-terminus and C-terminus assumed)
excellent trypsin inhibitory activities	8.00	7.30	CC[C@H](C)[C@@H]1NC(=O)[C@@H]2CCCN2C(=O)[C@@H]2CCCN2C(=O)[C@H]([C@@H](C)CC)NC(=O)[C@H](CO)NC(=O)[C@H](CCCCN)NC(=O)[C@H]([C@@H](C)O)NC(=O)[C@H](C)NC(=O)[C@H](CCCNC(=N)N)NC(=O)[C@H](CCC(N)=O)NC(=O)[C@@H](N)CSSC[C@@H](C(=O)N[C@@H](Cc2ccccc2)C(=O)O)NC1=O [BT79] (H-CQRATKSIPPICF-OH; disulfide 1-12; N-terminus and C-terminus assumed)
